Assay results reported in patent US11261177B2, “Benzoxazinone derivatives useful as herbicides” (REDAG CROP PROTECTION LTD, priority 2017, dated 2022).

Assays:
Format in all cases: in vivo
Lolium perenne [1] = test: Post-emergence herbicidal assay, 96 cell trays, glasshouse; details: 168 h, second trial (Table 2), Lollium, assessed 7 days after treatment, read-out: % control of plant growth; for pest or weed control at 200 g/ha: 0.2 kg/ha; for pest or weed control at 1000 g/ha: 1 kg/ha; for pest or weed control at 5000 g/ha: 5 kg/ha
Outline: (§1)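 Compounds were applied at 0.2, 1 and 5 kg/ha in 25% acetone/75% water with 0.01% Tween 20, onto soil 1 day after sowing (pre-emergence) or sprayed on seedlings two weeks after sowing (post-emergence). Three replicates; glasshouse, uncontrolled conditions; % control of growth scored 7 days after treatment.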

[2] = tested on: Stellaria media—Chickweed; test: as above; details: 168 h, second trial (Table 2), assessed 7 days after treatment, read-out: % control of plant growth; for pest or weed control at 200 g/ha: 0.2 kg/ha; for pest or weed control at 1000 g/ha: 1 kg/ha; for pest or weed control at 5000 g/ha: 5 kg/ha
Outline: as §1

Lolium perenne [3] = test: Pre-emergence herbicidal assay, 96 cell trays, glasshouse; details: 168 h, second trial (Table 2), Lollium, assessed 7 days after treatment, read-out: % control of plant growth; for pest or weed control at 200 g/ha: 0.2 kg/ha; for pest or weed control at 1000 g/ha: 1 kg/ha; for pest or weed control at 5000 g/ha: 5 kg/ha
Outline: as §1

[4] = tested on: Stellaria media—Chickweed; test: as above; details: 168 h, second trial (Table 2), assessed 7 days after treatment, read-out: % control of plant growth; for pest or weed control at 200 g/ha: 0.2 kg/ha; for pest or weed control at 1000 g/ha: 1 kg/ha; for pest or weed control at 5000 g/ha: 5 kg/ha
Outline: as §1

[5] = tested on: 2 weed species (Stellaria media—Chickweed and Lolium perenne); test: Herbicidal activity screen, summary in words over both weed species; details: pre- and post-emergence, 0.2, 1 and 5 kg/ha
Description: The compounds were screened at three concentrations (0.2, 1 and 5 kg/ha) against 2 weed species (Stellaria media—Chickweed and Lolium perenne). The seeds were sown in the cells of 96 cell trays (4-6 seeds per cell). For the pre-emergence assay, 75 μL of a suspension of the test compound, at the above doses, was added on top of the soil 1 day after sowing. For the post-emergence assay, the seedlings were sprayed with 200 μL of a suspension of the test compound two weeks after sowing. The formulation used is 25% acetone and 75% water/0.01% Tween 20. Each treatment was replicated three times. The plants were kept in a glasshouse (uncontrolled conditions) and assessed 7 days after treatment. A small number of compounds were tested in a first trial. A larger number of compounds were tested in a second trial. The assessment was based on the % control of plant growth in each cell.

| SMILES | pest or weed control at 200 g/ha (Lolium perenne [1]) | pest or weed control at 1000 g/ha (Lolium perenne [1]) | pest or weed control at 5000 g/ha (Lolium perenne [1]) | pest or weed control at 200 g/ha [2] | pest or weed control at 1000 g/ha [2] | pest or weed control at 5000 g/ha [2] | pest or weed control at 200 g/ha (Lolium perenne [3]) | pest or weed control at 1000 g/ha (Lolium perenne [3]) | pest or weed control at 5000 g/ha (Lolium perenne [3]) | pest or weed control at 200 g/ha [4] | pest or weed control at 1000 g/ha [4] | pest or weed control at 5000 g/ha [4] | herbicidal activity [5] |
| --- | --- | --- | --- | --- | --- | --- | --- | --- | --- | --- | --- | --- | --- |
| C#CCN1C(=O)C2(CC2)Oc2cc(F)c(N3C(=O)CCC3=O)cc21 [Example 28, 1-(7-Fluoro-3-oxo-4-(prop-2-yn-1-yl)-3,4-dihydrospiro[benzo[b][1,4]oxazine-2,1′-cyclopropan]-6-yl)pyrrolidine-2,5-dione] | 20 to 80% | 80 to 100% | 80 to 100% | 80 to 100% | 80 to 100% | 80 to 100% | 80 to 100% | 80 to 100% | 80 to 100% | 80 to 100% | 80 to 100% | 80 to 100% | excellent herbicidal activity against all tested species |
| C#CCN1C(=O)C2(CC2)Oc2cc(F)c(N3C(=O)CC(C)CC3=O)cc21 [Example 29, 1-(7-Fluoro-3-oxo-4-(prop-2-yn-1-yl)-3,4-dihydrospiro[benzo[b][1,4]oxazine-2,1′-cyclopropan]-6-yl)-4-methylpiperidine-2,6-dione] | < 20% | 20 to 80% | 20 to 80% | 80 to 100% | 80 to 100% | 80 to 100% | 80 to 100% | 80 to 100% | 80 to 100% | 80 to 100% | 80 to 100% | 80 to 100% | excellent herbicidal activity against all tested species |
| C#CCN1C(=O)C2(CC2)Oc2cc(F)c(/N=c3\sc(=O)n4n3CCCC4)cc21 [Example 31, (Z)-7-Fluoro-6-((3-oxotetrahydro-1H,3H-[1,3,4]thiadiazolo[3,4-a]pyridazin-1-ylidene)amino)-4-(prop-2-yn-1-yl)spiro[benzo[b][1,4]oxazine-2,1′-cyclopropan]-3(4H)-one] | 80 to 100% | 80 to 100% | 80 to 100% | 80 to 100% | 80 to 100% | 80 to 100% | 80 to 100% | 80 to 100% | 80 to 100% | 80 to 100% | 80 to 100% | 80 to 100% | excellent herbicidal activity against all tested species |
| C#CCN1C(=O)C2(CC2)Oc2cc(F)c(-n3c(=O)cc(C(F)(F)F)n(C)c3=O)cc21 [Example 34, 3-(7-Fluoro-3-oxo-4-(prop-2-yn-1-yl)-3,4-dihydrospiro[benzo[b][1,4]oxazine-2,1′-cyclopropan]-6-yl)-1-methyl-6-(trifluoromethyl)pyrimidine-2,4(1H,3H)-dione] | 20 to 80% | 80 to 100% | 80 to 100% | 80 to 100% | 80 to 100% | 80 to 100% | 20 to 80% | 80 to 100% | 80 to 100% | 80 to 100% | 80 to 100% | 80 to 100% | excellent herbicidal activity against all tested species |
| C#CCN1C(=O)C2(CC2)Oc2cc(F)c(-n3c(=O)cc(C(F)(F)F)n(CCC)c3=O)cc21 [Example 43] | 20 to 80% | 20 to 80% | 80 to 100% | 80 to 100% | 80 to 100% | 80 to 100% | 20 to 80% | 80 to 100% | 80 to 100% | 20 to 80% | 80 to 100% | 80 to 100% | excellent herbicidal activity against all tested species |
| C#CCN1C(=O)C2(CC2)Oc2cc(F)c(N3C(=O)C4CCCN4C3=O)cc21 (stereo not shown) [Example 44, 2-(7-Fluoro-3-oxo-4-(prop-2-yn-1-yl)-3,4-dihydrospiro[benzo[b][1,4]oxazine-2,1′-cyclopropan]-6-yl)tetrahydro-1H-pyrrolo[1,2-c]imidazole-1,3(2H)-dione] | 80 to 100% | 80 to 100% | 80 to 100% | 80 to 100% | 80 to 100% | 80 to 100% | < 20% | 20 to 80% | 80 to 100% | 80 to 100% | 80 to 100% | 80 to 100% | excellent herbicidal activity against all tested species |
| C#CCN1C(=O)C2(CC2)Oc2cc(F)c(N3C(=O)C4CCCCN4C3=O)cc21 (stereo not shown) [Example 47] | 80 to 100% | 80 to 100% | 80 to 100% | 80 to 100% | 80 to 100% | 80 to 100% | 20 to 80% | 80 to 100% | 80 to 100% | 80 to 100% | 80 to 100% | 80 to 100% | excellent herbicidal activity against all tested species |
